Test: dermal toxicity of granular formulations (dermal LD50), male albino rabbits
Settings: rabbit, in vivo, topical or ocular, Table I, 24 h cuff, 14 days observation, O,O-diethyl S-{[(1,1-dimethylethyl)thio]methyl}phosphorodithioate
Source text: General method for the evaluation of dermal toxicity of the formulations of the present invention using male albino rabbits as the test animals
a. Five male albino rabbits weighing approximately 2.2 to 3.5 kilogram are selected for each dosage level. The hair is shaved from the entire trunk.
b. Saran tubing or "Vinylite" film VU1900, 30.5 cm (12") wide, 0.04 millimeter in thickness and long enough to fit around the rabbit.
c. One felt cloth bandage measuring approximately 22.9×45.7 cm (9"×18").
d. Four pieces of 3.8 cm (1.5") adhesive tape approximately 35.6 cm (14") long.
a. The granular material is placed in the center of the plastic film and is moistened with water.
b. The rabbits underside is moistened with water and the animals are placed belly down on the material.
c. The plastic is then brought up and around the animal and secured at each end with strips of adhesive tape. The felt cloth is then placed under the belly and brought up around the animal and secured to the body with the remaining two strips of adhesive tape.
Twenty-four hours after dosing, the "cuff" is removed and any remaining material is brushed away. If the test material cannot be removed, the animal is fitted with a fiber collar which prevents the animal from licking the treatment area. The animals are observed for 14 days, post dosing, noting signs of toxicity, skin irritation and mortality. […]

SMILES: CCOP(=S)(OCC)SCSC(C)(C)C [O,O-diethyl S-{[(1,1-dimethylethyl)thio]methyl}phosphorodithioate]
- LD50 at 336 h: 1 to 2 mg/kg

— US4343790A, “Controlled release acrylic polymer coated granular pesticidal compositions with attendant reduced dermal toxicity” (priority 1980, dated 1982)
